Assays:
Details in all cases: scale 0 to 100
wild oat (Avenafatua) = assay: Test D postemergence; assay type: in vivo, Avena fatua
From the text: Seeds of plant species selected from bluegrass (annual bluegrass, Poa annua), blackgrass (Alopecurus myosuroides), canarygrass (Phalaris minor), chickweed (common chickweed, Stellaria media), cutleaf geranium (Geranium dissectum), galium (catchweed bedstraw, Galium aparine), downy bromegrass (Bromus tectorum), field poppy (Papaver rhoeas), field violet (Viola arvensis), green foxtail (Setaria viridis), deadnettle (henbit deadnettle, Lamium amplexicaule), Italian ryegrass (Lolium multiflorum), kochia (Kochia scoparia), lambsquarters (Chenopodium album), oilseed rape (Brassica napus), pigweed (Amaranthus retroflexus), chamomile (scentless chamomile, Matricaria inodora), Russian thistle (Salsola kali), speedwell (bird's-eye speedwell, Veronica persica), spring barley (Hordeum vulgare), spring wheat (Triticum aestivum), wild buckwheat (Polygonum convolvulus), wild mustard (Sinapis arvensis), wild oat (Avenafatua), wild radish (Raphanus raphanistrum), windgrass (Apera spica-venti), winter barley (Hordeum vulgare), and winter wheat (Triticum aestivum) were planted into a silt loam soil and treated preemergence with test chemicals formulated in a non-phytotoxic solvent mixture which included a surfactant.
At the same time, these species were planted in pots containing Redi-Earth® planting medium (Scotts Company, 14111 Scottslawn Road, Marysville, Ohio 43041) comprising spaghnum peat moss, vermiculite, wetting agent and starter nutrients and treated with postemergence applications of the test chemicals formulated in the same manner. Plants ranged in height from 2 to 18 cm (1- to 4-leaf stage). Treated plants and controls were maintained in a controlled growth environment for 14 to 21 days after which time all species were compared to controls and visually evaluated. Plant response ratings, summarized in Table D, are based on a scale of 0 to 100 where 0 is no effect and 100 is complete control. A dash (-) response means no test result.

[1] = system: wild radish (Raphanus raphanistrum); assay: Test D preemergence; assay type: in vivo
Summary of the method: (§1)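 Seeds were sown in silt loam for preemergence treatment, or in peat/vermiculite medium for postemergence sprays at 2–18 cm (1- to 4-leaf stage). Test chemicals were in a non-phytotoxic solvent with surfactant. After 14–21 days in a controlled environment, plants were visually rated against controls on a 0–100 scale (0 no effect, 100 complete control).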

[2] = system: chamomile (scentless chamomile, Matricaria inodora); assay: Test D preemergence; assay type: in vivo
Summary of the method: as §1

[3] = system: winter barley (Hordeum vulgare); assay: Test D preemergence; assay type: in vivo
Summary of the method: as §1

[4] = system: Italian ryegrass (Lolium multiflorum); assay: Test D preemergence; assay type: in vivo
Summary of the method: as §1

[5] = system: field violet (Viola arvensis); assay: Test D preemergence; assay type: in vivo
Summary of the method: as §1

[6] = system: lambsquarters (Chenopodium album); assay: Test D preemergence; assay type: in vivo
Summary of the method: as §1

[7] = system: windgrass (Apera spica-venti); assay: Test D preemergence; assay type: in vivo
Summary of the method: as §1

[8] = system: galium (catchweed bedstraw, Galium aparine); assay: Test D preemergence; assay type: in vivo
Summary of the method: as §1

[9] = system: spring wheat (Triticum aestivum); assay: Test D preemergence; assay type: in vivo
Summary of the method: as §1

[10] = system: deadnettle (henbit deadnettle, Lamium amplexicaule); assay: Test D preemergence; assay type: in vivo
Summary of the method: as §1

[11] = system: spring barley (Hordeum vulgare); assay: Test D preemergence; assay type: in vivo
Summary of the method: as §1

[12] = system: field poppy (Papaver rhoeas); assay: Test D preemergence; assay type: in vivo
Summary of the method: as §1

[13] = system: green foxtail (Setaria viridis); assay: Test D preemergence; assay type: in vivo
Summary of the method: as §1

[14] = system: winter wheat (Triticum aestivum); assay: Test D preemergence; assay type: in vivo
Summary of the method: as §1

[15] = system: oilseed rape (Brassica napus); assay: Test D preemergence; assay type: in vivo
Summary of the method: as §1

[16] = system: pigweed (Amaranthus retroflexus); assay: Test D preemergence; assay type: in vivo
Summary of the method: as §1

kochia (Kochia scoparia) = assay: Test D preemergence; assay type: in vivo
Summary of the method: as §1

Fc1cnc(Oc2c(Br)cccc2Oc2ncc(Cl)cn2)nc1 [Compound 22]
Plant response rating, Oat, Wild (wild oat (Avenafatua); 16 g ai/ha): 10
Plant response rating, Oat, Wild (wild oat (Avenafatua); 31 g ai/ha): 25
Plant response rating, Oat, Wild (wild oat (Avenafatua); 62 g ai/ha): 35
Plant response rating, Oat, Wild (wild oat (Avenafatua); 125 g ai/ha): 45
Plant response rating, Radish, Wild ([1]; 16 g ai/ha): 45
Plant response rating, Radish, Wild ([1]; 31 g ai/ha): 55
Plant response rating, Radish, Wild ([1]; 62 g ai/ha): 70
Plant response rating, Radish, Wild ([1]; 125 g ai/ha): 80
Plant response rating, Chamomile ([2]; 16 g ai/ha): 30
Plant response rating, Chamomile ([2]; 31 g ai/ha): 40
Plant response rating, Chamomile ([2]; 62 g ai/ha): 55
Plant response rating, Chamomile ([2]; 125 g ai/ha): 100
Plant response rating, Barley, Winter ([3]; 16 g ai/ha): 0
Plant response rating, Barley, Winter ([3]; 31 g ai/ha): 0
Plant response rating, Barley, Winter ([3]; 62 g ai/ha): 5
Plant response rating, Barley, Winter ([3]; 125 g ai/ha): 40
Plant response rating, Ryegrass, Italian ([4]; 16 g ai/ha): 10
Plant response rating, Ryegrass, Italian ([4]; 31 g ai/ha): 15
Plant response rating, Ryegrass, Italian ([4]; 62 g ai/ha): 25
Plant response rating, Ryegrass, Italian ([4]; 125 g ai/ha): 65
Plant response rating, Field Violet ([5]; 16 g ai/ha): 15
Plant response rating, Field Violet ([5]; 31 g ai/ha): 75
Plant response rating, Field Violet ([5]; 62 g ai/ha): 95
Plant response rating, Field Violet ([5]; 125 g ai/ha): 95
Plant response rating, Lambsquarters ([6]; 16 g ai/ha): 20
Plant response rating, Lambsquarters ([6]; 31 g ai/ha): 85
Plant response rating, Lambsquarters ([6]; 62 g ai/ha): 100
Plant response rating, Lambsquarters ([6]; 125 g ai/ha): 100
Plant response rating, Windgrass ([7]; 16 g ai/ha): 15
Plant response rating, Windgrass ([7]; 31 g ai/ha): 20
Plant response rating, Windgrass ([7]; 62 g ai/ha): 25
Plant response rating, Windgrass ([7]; 125 g ai/ha): 70
Plant response rating, Galium ([8]; 16 g ai/ha): 60
Plant response rating, Galium ([8]; 31 g ai/ha): 65
Plant response rating, Galium ([8]; 62 g ai/ha): 75
Plant response rating, Galium ([8]; 125 g ai/ha): 100
Plant response rating, Wheat, Spring ([9]; 16 g ai/ha): 0
Plant response rating, Wheat, Spring ([9]; 31 g ai/ha): 5
Plant response rating, Wheat, Spring ([9]; 62 g ai/ha): 15
Plant response rating, Wheat, Spring ([9]; 125 g ai/ha): 35
Plant response rating, Deadnettle ([10]; 16 g ai/ha): 20
Plant response rating, Deadnettle ([10]; 31 g ai/ha): 60
Plant response rating, Deadnettle ([10]; 62 g ai/ha): 85
Plant response rating, Deadnettle ([10]; 125 g ai/ha): 100
Plant response rating, Barley, Spring ([11]; 16 g ai/ha): 0
Plant response rating, Barley, Spring ([11]; 31 g ai/ha): 5
Plant response rating, Barley, Spring ([11]; 62 g ai/ha): 15
Plant response rating, Barley, Spring ([11]; 125 g ai/ha): 65
Plant response rating, Field Poppy ([12]; 16 g ai/ha): 65
Plant response rating, Field Poppy ([12]; 31 g ai/ha): 95
Plant response rating, Field Poppy ([12]; 62 g ai/ha): 100
Plant response rating, Field Poppy ([12]; 125 g ai/ha): 100
Plant response rating, Foxtail, Green ([13]; 16 g ai/ha): 15
Plant response rating, Foxtail, Green ([13]; 31 g ai/ha): 35
Plant response rating, Foxtail, Green ([13]; 62 g ai/ha): 40
Plant response rating, Foxtail, Green ([13]; 125 g ai/ha): 40
Plant response rating, Wheat, Winter ([14]; 16 g ai/ha): 0
Plant response rating, Wheat, Winter ([14]; 31 g ai/ha): 0
Plant response rating, Wheat, Winter ([14]; 62 g ai/ha): 5
Plant response rating, Wheat, Winter ([14]; 125 g ai/ha): 40
Plant response rating, Oilseed Rape ([15]; 16 g ai/ha): 30
Plant response rating, Oilseed Rape ([15]; 31 g ai/ha): 40
Plant response rating, Oilseed Rape ([15]; 62 g ai/ha): 70
Plant response rating, Oilseed Rape ([15]; 125 g ai/ha): 90
Plant response rating, Pigweed ([16]; 16 g ai/ha): 75
Plant response rating, Pigweed ([16]; 31 g ai/ha): 70
Plant response rating, Pigweed ([16]; 62 g ai/ha): 100
Plant response rating, Pigweed ([16]; 125 g ai/ha): 100
Plant response rating, Kochia (kochia (Kochia scoparia); 16 g ai/ha): 0
Plant response rating, Kochia (kochia (Kochia scoparia); 31 g ai/ha): 10
Plant response rating, Kochia (kochia (Kochia scoparia); 62 g ai/ha): 20
Plant response rating, Kochia (kochia (Kochia scoparia); 125 g ai/ha): 70

From US20170190671A1, “BIS(ARYL)CATECHOL DERIVATIVES AS HERBICIDES” (E I DU PONT DE NEMOURS AND COMPANY, priority 2014, published 2017)
